What all share (assay): NCI-60 cell line screen, 48 h
In test [1] the test system is A549 NSCLC.
Test [2] deals with MOLT-4 leukemia.
Test [3] concerns SK-MEL-2 melanoma.
For test [4], the system named is SF-268 CNS.
The test system of test [5] is SNB-19 CNS.
Test [6] deals with DU-145 prostate.
The test system of test [7] is HOP-62 NSCLC.
In test [8] the test system is OVCAR-3 ovarian.
Test [9] deals with SR leukemia.
Test [10] deals with 786-0 renal.

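Dose response: 5 concentrations. Exposure: 48 h. Format: 96-well plates. Endpoint: linear interpolation; highest concentration if not reached. Abbreviation: GI50, concentration required for 50% inhibition of growth. The concentration for full growth arrest is given as TGI.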

For `c1ccc(Cn2cc3c(c2)-c2oncc2CC3)cc1`, the GI50 in test [1] is 1.48 µM; in test [2], 0.394 µM; in [3], 5.29 µM; in test [4], 1.78 µM; in [5], 1.27 µM; in test [6] it was 0.977 µM. Moreover, the GI50 in test [7] is 1.28 µM; in test [8] it was 0.457 µM; in test [9] it was 0.31 µM; in test [10], 1.86 µM. For the same molecule, the TGI is 97.7 µM in test [1]; 87.5 µM in test [3]; 38.9 µM in [4]; greater than 100 µM in test [5]; 12.8 µM in test [6]; greater than 59.4 µM in [7]. Moreover, the values for the TGI in [8], in test [9] and in test [10] were 2.21 µM, 4.34 µM and greater than 30.8 µM, respectively.
`COC(=O)c1[nH]nc(-c2ccccc2)c1N1CCCCC1`: the GI50 in [1] was 43.6 µM; in [2], 62.6 µM; in [3], greater than 100 µM; in test [4], 20.8 µM; in test [5], 36.2 µM; in [6], 30.5 µM. The GI50 is 22 µM in test [7], 40.7 µM in test [8], 46.5 µM in [9] and 21.1 µM in [10]. Also, the TGI in test [1] was greater than 100 µM; in test [2], greater than 100 µM; in test [3] it was greater than 100 µM; in test [4], 53.5 µM; in test [5] it was greater than 100 µM; in test [6], greater than 100 µM. Moreover, the TGI in [7] is 57 µM; in test [8], greater than 100 µM; in [9], greater than 100 µM; in test [10], 57.9 µM.
Take `O=C(c1ccc(O)cc1)c1ccc(C(=O)c2ccc(O)cc2)cc1`: the GI50 in test [1] is greater than 100 µM; in test [2] it was greater than 100 µM; in test [3], greater than 100 µM; in [4], 26.6 µM; in test [5], 71.1 µM; in test [6], greater than 100 µM. For the same molecule, the GI50 was 18 µM in [7], greater than 100 µM in test [8], greater than 100 µM in test [9] and greater than 100 µM in [10]. The TGI in [1], in test [2], in test [3], in [4], in [5] and in test [6] was greater than 100 µM in each case. The TGI was 46.7 µM in [7], greater than 100 µM in test [8], greater than 100 µM in test [9] and greater than 100 µM in test [10].
For `Cc1ccc(C(=O)Nc2ccc(CN3CCN(C)CC3)c(C(F)(F)F)c2)cc1C#Cc1cncc2ncccc12`, the GI50 in test [1] was 0.473 µM; in [2], 0.353 µM; in test [3], 0.191 µM; in test [4] it was 0.408 µM; in [5], 1.29 µM; in [6], 0.388 µM. The GI50 in test [7] was 0.474 µM; in test [8] it was 0.558 µM; in [9], 0.63 µM; in test [10], 0.48 µM. The TGI in [1] was 5.24 µM; in [2], 16.8 µM; in [3], 0.599 µM; in [4] it was 4.33 µM; in test [5], 2.62 µM; in [6], 1.53 µM. The TGI in test [7] is 6.07 µM; in [8], 14.7 µM; in test [9], 7.78 µM; in test [10] it was 1.94 µM.
With `C/C1=C\CC[C@@](C)(O)[C@H]2C[C@H](CC/C(C)=C/CC1)C1(CC1)C(=O)O2`, the GI50 in test [1] is 17.4 µM; in test [2], 16.6 µM; in test [3] it was 39.1 µM; in [4] it was 19.3 µM; in test [5] it was 85.6 µM; in test [6], 16.6 µM. Further, the GI50 in [7] was 18.5 µM; in test [8] it was 25.2 µM; in test [9] it was 14.1 µM; in test [10] it was 16.4 µM. For the same molecule, the TGI is 32.3 µM in test [1]; 55.9 µM in [2]; greater than 100 µM in test [3]; 41.2 µM in test [4]; greater than 100 µM in test [5]; 31.2 µM in test [6]. For the same molecule, the TGI in [7] was 35.4 µM; in [8] it was 84.7 µM; in test [9], 32.6 µM; in test [10] it was 30.6 µM.
Turning to `Cc1cc(-c2ccccc2)c(C)n1Cc1ccc(Cl)cc1`, the GI50 in test [1] is 5.73 µM; in test [2], 4.84 µM; in test [3], 4.24 µM; in test [4] it was 13.6 µM; in test [5] it was 36.4 µM; in [6], 6.87 µM. Also, the GI50 in test [7] was 6.12 µM; in test [8], 3.54 µM; in [9], 0.592 µM; in test [10], 5.35 µM. Also, the TGI in test [1] is greater than 100 µM; in [2] it was 91.9 µM; in test [3] it was 19.5 µM; in test [4], greater than 100 µM; in [5], greater than 100 µM; in test [6], greater than 100 µM. In addition, the TGI in [7] is greater than 100 µM; in [8], 23.5 µM; in [9] it was 26.7 µM; in [10], 39.9 µM.
As for `Cn1c2ccccc2c2cc(-c3ccccc3)c3c(c21)C(=O)C=CC3=O`, the TGI in test [1] was greater than 100 µM; in test [2] it was 21.8 µM; in test [3], 49.9 µM; in test [4], 77.4 µM; in test [5] it was greater than 100 µM; in [6] it was greater than 100 µM. In addition, the TGI in test [7] was greater than 76 µM; in [8] it was 31.7 µM; in test [9], 17.5 µM; in [10], 22.7 µM.
For `c1ccc(-c2n(Cc3ccc4ccccc4n3)c3ccccc3[n+]2Cc2ccc3ccccc3n2)cc1`, the GI50 in [1] was 0.346 µM; in test [2], 0.443 µM; in [3] it was 0.298 µM; in test [4] it was 0.333 µM; in [5], 0.277 µM; in test [6] it was 0.417 µM. In addition, the GI50 in [7] was 0.446 µM; in [8] it was 0.311 µM; in test [9], 0.357 µM; in test [10], 1.03 µM. The TGI in test [1] is 2.06 µM; in test [2], 2.09 µM; in test [3], 1.11 µM; in test [4], 1.35 µM; in test [5], 1.31 µM; in [6], 5.55 µM. The TGI in test [7] was 1.95 µM; in test [8] it was 1.38 µM; in test [9], 2.42 µM; in [10], 2.33 µM.
For `CN(C)CCCNC(=O)c1cc2c3ccccc3[nH]c2c2ncccc12`, the GI50 was 14.1 µM in [1]; 8.78 µM in test [2]; 13.8 µM in test [3]; 16.7 µM in test [4]; 17.4 µM in test [5]; 19.7 µM in test [6]. Besides, the GI50 in [7] is 5.99 µM; in test [8], 16.3 µM; in [9] it was 14.5 µM; in test [10], 11.7 µM. The TGI in test [1] is greater than 100 µM; in [2], greater than 100 µM; in test [3], 31.7 µM; in test [4], 64.1 µM; in test [5], 85.3 µM; in test [6] it was greater than 100 µM. Besides, the TGI in test [7] amounted to 36.1 µM; in test [8] it was 54.9 µM; in [9], 67.1 µM; in [10], 42.4 µM.
As for `Cc1cc[c-]cc1.Fc1c[c-]c(-c2ccccn2)c(F)c1.N#CCC[PH+](CCC#N)c1ccccc1.[Pt+2]`, the GI50 in test [1] was 3.57 µM; in test [2] it was 2.79 µM; in test [3], 2.41 µM; in [4], 3.19 µM; in test [5], 4.91 µM; in [6], 2.46 µM. For the same molecule, the GI50 in test [7] was 4.93 µM; in [8], 3.26 µM; in test [9] it was 2.22 µM; in test [10], 3.57 µM. Moreover, the TGI was 71.8 µM in test [1]; greater than 100 µM in [2]; 6.57 µM in test [3]; 39.5 µM in test [4]; greater than 100 µM in [5]; 6.22 µM in test [6]. The TGI in test [7] stood at 31.7 µM; in [8], 13.1 µM; in test [9], 10 µM; in test [10], 18.8 µM.
In the case of `CCOC(=O)Nc1nc2c(F)c(F)c(F)cc2s1`, the GI50 in test [1] is greater than 100 µM; in [2] it was greater than 100 µM; in test [3], 53.1 µM; in [4] it was 43.8 µM; in test [5] it was greater than 100 µM; in test [6], 75.1 µM. Besides, the GI50 is 33.9 µM in [7], 75.1 µM in [8], greater than 100 µM in test [9] and 84.3 µM in test [10]. In addition, the TGI in test [1], in [2], in [3], in test [4], in [5] and in test [6] was greater than 100 µM throughout. Moreover, the TGI in [7], in test [8], in test [9] and in test [10] was greater than 100 µM in each case.
Turning to `O=C1Nc2ccccc2C12CC(c1ccccc1)=NN2` (centres undefined), the GI50 in test [1] is 5.11 µM; in test [2], 8.41 µM; in test [3], 5.46 µM; in test [4], 11.9 µM; in test [5], 12.7 µM; in test [6], 9.63 µM. For the same molecule, the GI50 in test [7] was 8.79 µM; in [8], 5.1 µM; in test [9], 3.64 µM; in test [10] it was 6.36 µM. Further, the TGI in [1] is greater than 100 µM; in test [2], greater than 100 µM; in test [3], 46.5 µM; in [4] it was greater than 100 µM; in [5], greater than 100 µM; in test [6], 51.1 µM. For the same molecule, the TGI in test [7] was greater than 100 µM; in test [8] it was 80.7 µM; in test [9] it was 34.8 µM; in test [10], 65.2 µM.
For the molecule `COc1ccc(C(=O)Nc2ncc(Cc3ccc(F)cc3)s2)cc1`, the GI50 in [1] is 0.0678 µM; in test [2] it was 0.0574 µM; in [3], 3.95 µM; in [4], 0.481 µM; in test [5], 0.0963 µM; in test [6], 0.138 µM. Also, the GI50 in [7] was 0.148 µM; in [8], 0.0346 µM; in test [9], 0.0336 µM; in test [10], 0.11 µM. Besides, the TGI in test [1], in test [2], in [3], in test [4], in [5] and in test [6] was greater than 100 µM in each case. Also, the TGI in test [7] is greater than 56.5 µM; in test [8], 1.32 µM; in test [9] it was greater than 100 µM; in [10], greater than 100 µM.
`Cn1cc(-c2csc(-c3cn(CCN4CCOCC4)c4ccc(F)cc34)n2)c2cccnc21`: the GI50 in test [1] was 3.18 µM; in test [2], 1.79 µM; in test [3], 2.53 µM; in test [4], 2.82 µM; in test [5], 3.93 µM; in test [6] it was 3.12 µM. Further, the GI50 in test [7] was 2.42 µM; in test [8], 2.71 µM; in [9] it was 2.29 µM; in [10], 2.91 µM. Moreover, the TGI was 17.5 µM in [1]; 4.46 µM in [2]; 7.28 µM in [3]; greater than 100 µM in test [4]; greater than 100 µM in test [5]; greater than 100 µM in test [6]. Further, the TGI in test [7] came out at 7.59 µM; in test [8], 9.27 µM; in test [9], 6.9 µM; in test [10], 11.4 µM.
Consider `O=C1CC(c2ccccc2)Cc2nc3ccc(Cl)cc3cc21` (centres undefined), for which the GI50 is 0.451 µM in test [1]; 0.0644 µM in test [2]; 0.207 µM in test [3]; 6.04 µM in test [4]; 0.462 µM in [5]; 0.217 µM in test [6]. Also, the GI50 in [7] is 0.459 µM; in test [8], 0.313 µM; in test [9], 0.0553 µM; in test [10], 0.815 µM. In addition, the TGI in test [1], in [2], in [3], in test [4], in test [5] and in test [6] was greater than 100 µM throughout. Moreover, the TGI is greater than 100 µM in [7], 1.16 µM in test [8], 35.2 µM in test [9] and greater than 74.7 µM in test [10].

Source of the values: PubChem BioAssay (NCI).
